Molecular target: T1, LRRC8A (volume-regulated anion channel, VRAC) (Homo sapiens, UniProt Q8IWT6)
T1 construct: endogenous VRAC in WT HAP-1 and HEK-293 cells (current absent in LRRC8A-KO cells); with at least one other LRRC8 subunit (LRRC8B, C, D or E)
T1 sequence (Q8IWT6 1-810): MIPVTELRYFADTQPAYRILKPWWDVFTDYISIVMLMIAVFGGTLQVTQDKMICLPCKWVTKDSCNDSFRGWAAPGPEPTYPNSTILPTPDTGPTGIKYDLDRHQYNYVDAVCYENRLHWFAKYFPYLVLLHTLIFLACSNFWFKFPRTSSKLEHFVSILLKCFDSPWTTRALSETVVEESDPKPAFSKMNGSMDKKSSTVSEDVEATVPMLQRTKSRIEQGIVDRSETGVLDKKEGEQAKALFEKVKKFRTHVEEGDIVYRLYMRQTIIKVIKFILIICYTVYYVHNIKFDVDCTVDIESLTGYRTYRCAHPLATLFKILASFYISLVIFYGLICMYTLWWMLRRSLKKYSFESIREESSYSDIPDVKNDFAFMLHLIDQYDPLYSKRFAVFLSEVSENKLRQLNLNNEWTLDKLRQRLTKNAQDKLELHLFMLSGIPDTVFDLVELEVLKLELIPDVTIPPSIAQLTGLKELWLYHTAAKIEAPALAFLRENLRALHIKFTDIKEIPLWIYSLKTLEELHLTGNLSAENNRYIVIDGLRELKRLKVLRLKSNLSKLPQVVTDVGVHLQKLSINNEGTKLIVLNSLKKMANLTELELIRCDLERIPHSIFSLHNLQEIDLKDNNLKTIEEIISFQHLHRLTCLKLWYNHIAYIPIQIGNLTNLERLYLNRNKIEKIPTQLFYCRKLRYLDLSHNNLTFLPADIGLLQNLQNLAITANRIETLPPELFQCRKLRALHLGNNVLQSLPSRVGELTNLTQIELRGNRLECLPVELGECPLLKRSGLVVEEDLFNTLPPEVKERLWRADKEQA
Assay: whole-cell patch clamp of swelling-induced anion current, WT vs LRRC8A-KO cells
Format: cell-based

SMILES: CCCCC1(C2CCCC2)Cc2cc(OCCCC(=O)O)c(Cl)c(Cl)c2C1=O (stereo not shown) [DCPIB, 4‐(2‐butyl‐6,7‐dichloro‐2‐cyclopentylindan‐1‐on‐5‐yl) oxybutyric acid]
- whole-cell patch clamp of swelling-induced anion current, WT vs LRRC8A-KO cells: 10 µM
